Assays:
Type in all cases: in vivo, Sprague-Dawley (SD) rats
[1] = tested on: neuron apoptosis-operated rats; assay: Example 2 body swing test
Method: Sensorimotor function was evaluated by use of limb placing (de Ryck M et al., Stroke. 20:1383-90(1989)) and body swing (Borlongan and Sanberg, J Neurosci. 15:5372-8(1995)) tests. These tests were performed at 1 and 28 days after neuron apoptosis. The investigator performing the surgery and behavioral assessments was blinded to treatment assignment.
Body swing tests: Animals were held approximately 2 cm from the base of its tail and elevated to an inch above a surface of a table. A swing was recorded whenever the rat moved its head out of the vertical axis to either side by more than 10° from vertical and then returned to the vertical position. Thirty total swings were counted per animal. After right-hemisphere neuron apoptosis, animals tend to swing to the contralateral (left) side. Thus, the numbers and percentages of body swings to the ipsilateral (right) side were recorded as a measure of recovery, with an intact animal scoring.
All data were expressed as mean±standard deviation (S.D.) of ten rats. Multiple comparison tests for different dose groups were conducted. Variance homogeneity was examined using the Levene test (Levene A, Clin Otalary, 1981; 6:145-51). […] Statistical analyses were conducted using SPSS for Windows (Release 14K, SPSS Inc., USA; Ludbrook, Clin Exp Pharmacol Physiol, 1997; 24:294-6). In addition, the percent changes as compared with neuron apoptosis control and mirodenafil treated rats were calculated to help the understanding of the efficacy of test substances as follow Equation 6 and 7. Percentage Changes as Compared with Sham Control (%)=[((Data of neuron apoptosis control−Data of sham control rat)/Data of sham control rats)×100] [EQUATION 6] Percentage Changes as Compared with neuron apoptosis Control (%)=[((Data of test material treated rats−Data of neuron apoptosis control rats)/Data of neuron apoptosis control rats)×100] [EQUATION 7]

[2] = tested on: caspase-3; assay: Example 1 immunohistochemistry: caspase-3-immunoreactive cells; conditions: for Numbers of neurons: Caspase-3+: 29 days after neuron apoptosis
Method: The induction of neuron apoptosis was carried out by damaging the right hemisphere of the brain of animals. Specifically, animals were anesthetized with 2 or 3% isoflurane in the mixture of 70% N2O and 28.5% O2, and were maintained with 1 to 1.5% isoflurane in the mixture of 70% N2O and 28.5% O2. After that the temporalis muscle was bisected and reflected through an incision made midway between the eye and the eardrum canal. The proximal MCA was exposed through a subtemporal craniectomy by microdental drills without removing the zygomatic arch and without transecting the facial nerve. […] Mortality was less than 5%. For sham control, all procedures were performed in the same way, with the exception of the occlusion of the MCA.
After deparraffinized of cerebral histological paraffin sections, citrate buffer antigen (epitope) retrieval pretreatment were conducted as previously (Shi S R et al., J Histochem Cytochem. 41:1599-604(1993)). Briefly, pre-heat water bath with staining dish containing 10 mM citrate buffers (pH 6.0) until temperature reaches 95-100° C. Immerse slides in the staining dish and place the lid loosely on the staining dish. Incubate for 20 minutes and turn off the water bath. Place the staining dish at room temperature and allow the slides to cool for 20 minutes. After epitope retrivals, sections were immunostained as following steps:
Incubate sections with methanol and 0.3% H2O2 for 30 minutes for blocking endogenous peroxidase activity at room temperature and rinse in 0.01M phosphate buffered saline (PBS; pH 7.2) for 3 times;
Incubate sections with normal horse serum blocking solution (Vector Lab. Inc., Burlingame, USA. Dilution 1:100) for 1 hour to block non-specific binding of immunoglobulin at room temperature in humidity chamber, and rinse in 0.01M PBS for 3 times;
Incubate sections with primary antisera for overnight at 4° C. in humidity chamber and rinse in 0.01M PBS for 3 times;
Incubate sections with biotinylated universal secondary antibody (Vector Lab., Dilution 1:50) for 1 hour at room temperature in humidity chamber and rinse in 0.01M PBS for 3 times;
Incubate sections with ABC reagents (Vectastain Elite ABC Kit, Vector Lab., Dilution 1:50) for 1 hour at room temperature in humidity chamber and rinse in 0.01M PBS for 3 times;
Incubate sections in Peroxidae substrate kit (Vector Lab.) for 5 min at room temperature and rinse in 0.01M PBS for 3 times;
Counterstain with Mayer's hematoxylin solution and rinse in running tap water for 30 minutes;
Dehydrate through 95% ethanol for 2 minutes, 100% ethanol for 3 times and Clear in xylene for two times; and
Coverslip with permanent mounting medium and observed under light microscope (Nikkon, Japan).
Histomorphometry: The nerve cells occupied by over 10% of immunoreactivities, the density, of each antiserum, caspase-3 and PARP were regarded as immunoreactive. In the present study, the numbers of each caspase-3 and PARP-immunoreactive cells among mm^2 of ipsilateral peri-infarct/defect cerebral cortex were measured using a computer-assisted image analysis program, respectively.
(§1) All data were expressed as mean±standard deviation (S.D.) of ten rats. Multiple comparison tests for different dose groups were conducted. Variance homogeneity was examined using the Levene test (Levene A, Clin Otalary, 1981; 6:145-51). […] Statistical analyses were conducted using SPSS (Release 14K, SPSS Inc., USA; Ludbrook, Clin Exp Pharmacol Physiol, 1997; 24:294-6). In addition, the percent changes between neuron apoptosis control and mirodenafil treated rats were calculated to help the understanding of the efficacy of test material as follow equation 3. Percentage changes as compared with neuron apoptosis control (%)=[((Data of mirodenafil treated groups−Data of neuron apoptosis control)/Data of neuron apoptosis control)×100] [EQUATION 3]

[3] = Example 1 body weight measurements; conditions: for Body weights at 1 day before surgery / Body weights at surgery [A]: before treatment, in g
Method: Changes of body weight were measured at 1 day before neuron apoptosis, the day of neuron apoptosis, 1, 7 14, 21, 28 and 29 days after neuron apoptosis using an automatic electronic balance. To reduce the individual differences, the body weight gains after neuron apoptosis and continuous oral treatment of materials were calculated as follows. Body weight gains (g) during 29 days after neuron apoptosis=(Body weight at the 29 days after neuron apoptosis−body weight at the day of neuron apoptosis) [EQUATION 2]
as §1

CCCOc1ccc(S(=O)(=O)N2CCN(CCO)CC2)cc1-c1nc2c(CCC)cn(CC)c2c(=O)[nH]1 [Mirodenafil, mirodenafil]
numbers and percentages of body swings to ipsilateral right sides at 28 days, change as compared with neuron apoptosis control ([1]; 1 mg/kg from 24 hrs after surgery): 82.00%
numbers and percentages of body swings to ipsilateral right sides at 28 days, change as compared with neuron apoptosis control ([1]; 1 mg/kg from 72 hrs after surgery): 48.00%
numbers and percentages of body swings to ipsilateral right sides at 28 days, change as compared with neuron apoptosis control ([1]; 1 mg/kg from 168 hrs after surgery): 14.00%
numbers of caspase-3-immunoreactive neurons, change as compared with neuron apoptosis control ([2]; 0.5 mg/kg): −33.43%
Numbers of neurons: Caspase-3+ ([2]; 0.5 mg/kg s.c. once a day): 43.80 ± 10.37^ab cells/mm^2 of cerebral cortex
numbers of caspase-3-immunoreactive neurons, change as compared with neuron apoptosis control ([2]; 1 mg/kg): −76.44%
Numbers of neurons: Caspase-3+ ([2]; 1 mg/kg s.c. once a day): 15.50 ± 3.57^ab cells/mm^2 of cerebral cortex
numbers of caspase-3-immunoreactive neurons, change as compared with neuron apoptosis control ([2]; 2 mg/kg): −77.96%
Numbers of neurons: Caspase-3+ ([2]; 2 mg/kg s.c. once a day): 14.50 ± 3.69^ab cells/mm^2 of cerebral cortex
Body weights at 1 day before surgery ([3]; 0.5 mg/kg group): 540.70 ± 23.66
Body weights at surgery [A] ([3]; 0.5 mg/kg group): 510.20 ± 26.08
body weight gains during 29 days, change as compared with neuron apoptosis control ([3]; 1 mg/kg): 218.52%
Body weights at 1 day before surgery ([3]; 1 mg/kg group): 539.70 ± 27.54
Body weights at surgery [A] ([3]; 1 mg/kg group): 510.30 ± 28.32
body weight gains during 29 days, change as compared with neuron apoptosis control ([3]; 2 mg/kg): 155.74%
Body weights at 1 day before surgery ([3]; 2 mg/kg group): 543.30 ± 26.39
Body weights at surgery [A] ([3]; 2 mg/kg group): 513.40 ± 27.21

Reference: US10064865B2, “Composition comprising phosphodiesterase type 5 inhibitor for inhibiting apoptosis of nerve cells” (ARIBIO INC., priority 2012, dated 2018)
